Source: ChEMBL document CHEMBL5036349, “Development of potent dual PDK1/AurA kinase inhibitors for cancer therapy: Lead-optimization, structural insights, and ADME-Tox profile” (Eur J Med Chem, 2021)

Tests used:
[1] = Cytotoxicity against hTERT cells at 10 uM measured after 24 to 48 hrs by Cell-titer glo assay relative to control; assay type: cell-based; details: human, time 24-48 hrs
[2] = target: T1, Histone deacetylase 8 (Homo sapiens) (UniProt Q9BY41); assay: Inhibition on human recombinant HDAC8 at 10 uM measured after 20 min by luminescence glo assay
T1 sequence (whole entry): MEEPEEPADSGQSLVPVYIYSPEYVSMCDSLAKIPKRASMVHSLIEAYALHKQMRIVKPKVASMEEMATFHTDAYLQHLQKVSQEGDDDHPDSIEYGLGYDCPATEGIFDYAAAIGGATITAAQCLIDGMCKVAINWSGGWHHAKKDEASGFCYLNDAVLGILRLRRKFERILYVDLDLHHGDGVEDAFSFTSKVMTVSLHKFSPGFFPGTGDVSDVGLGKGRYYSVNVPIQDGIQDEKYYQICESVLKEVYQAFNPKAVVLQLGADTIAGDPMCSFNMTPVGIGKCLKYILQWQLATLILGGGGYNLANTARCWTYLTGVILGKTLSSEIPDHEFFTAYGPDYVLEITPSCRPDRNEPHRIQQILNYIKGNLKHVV

[3] = target: T2, NAD-dependent protein deacetylase sirtuin-7 (Homo sapiens) (UniProt Q9NRC8); assay: Inhibition of human recombinant SIRT7 at 10 uM incubated for 20 mins followed by mixing and measure after 30 mins by Luminescence assay relative to control; details: time 50.0 min
T2 sequence (whole entry): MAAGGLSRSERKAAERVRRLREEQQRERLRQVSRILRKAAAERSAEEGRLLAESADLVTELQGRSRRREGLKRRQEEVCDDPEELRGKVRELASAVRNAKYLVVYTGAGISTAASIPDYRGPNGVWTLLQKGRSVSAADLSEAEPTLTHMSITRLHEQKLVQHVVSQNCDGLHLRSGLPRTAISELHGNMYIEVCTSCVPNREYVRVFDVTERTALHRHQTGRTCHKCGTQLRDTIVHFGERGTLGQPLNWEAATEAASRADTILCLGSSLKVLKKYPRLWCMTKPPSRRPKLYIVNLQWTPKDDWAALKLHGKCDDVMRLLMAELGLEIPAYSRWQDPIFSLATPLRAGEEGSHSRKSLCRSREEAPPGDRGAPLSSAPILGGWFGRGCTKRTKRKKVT

[4] = target: {'v': 'CYP3A4', 'o': 'p', 'q': 'Inhibition of CYP3A4 (unknown origin)'} (Homo sapiens, UniProt P08684); assay: Inhibition of CYP3A4 (unknown origin) at 10 uM pre-incubated for 30 min followed by addition of NADPH and measured after 30 min by Luminescence based plate reader method relative to control; assay type: ADME; details: time 60 min
Sequence of {'v': 'CYP3A4', 'o': 'p', 'q': 'Inhibition of CYP3A4 (unknown origin)'} (P08684 whole entry): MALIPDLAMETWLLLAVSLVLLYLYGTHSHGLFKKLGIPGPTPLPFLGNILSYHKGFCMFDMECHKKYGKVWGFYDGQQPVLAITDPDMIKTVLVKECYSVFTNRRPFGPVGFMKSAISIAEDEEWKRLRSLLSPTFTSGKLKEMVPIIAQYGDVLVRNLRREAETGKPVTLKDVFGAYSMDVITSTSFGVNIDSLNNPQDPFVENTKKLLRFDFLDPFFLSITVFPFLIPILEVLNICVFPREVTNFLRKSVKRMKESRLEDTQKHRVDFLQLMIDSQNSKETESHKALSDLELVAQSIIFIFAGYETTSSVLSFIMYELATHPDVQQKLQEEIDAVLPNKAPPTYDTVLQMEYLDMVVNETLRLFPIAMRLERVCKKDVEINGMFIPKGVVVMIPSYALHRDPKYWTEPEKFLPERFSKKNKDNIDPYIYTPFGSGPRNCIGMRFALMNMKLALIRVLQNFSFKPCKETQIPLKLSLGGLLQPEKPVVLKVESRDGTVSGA

[5] = target: 3',5'-cyclic-AMP phosphodiesterase 4C (Homo sapiens) (UniProt Q08493); assay: Inhibition of PDE4C1 (unknown origin) at 10 uM incubated for 60 mins followed by addition of binding agent and measured after 20 mins by Fluorescence Polarization assay relative to control; details: time 80.0 min
Sequence of 3',5'-cyclic-AMP phosphodiesterase 4C (Homo sapiens) (Q08493 whole entry): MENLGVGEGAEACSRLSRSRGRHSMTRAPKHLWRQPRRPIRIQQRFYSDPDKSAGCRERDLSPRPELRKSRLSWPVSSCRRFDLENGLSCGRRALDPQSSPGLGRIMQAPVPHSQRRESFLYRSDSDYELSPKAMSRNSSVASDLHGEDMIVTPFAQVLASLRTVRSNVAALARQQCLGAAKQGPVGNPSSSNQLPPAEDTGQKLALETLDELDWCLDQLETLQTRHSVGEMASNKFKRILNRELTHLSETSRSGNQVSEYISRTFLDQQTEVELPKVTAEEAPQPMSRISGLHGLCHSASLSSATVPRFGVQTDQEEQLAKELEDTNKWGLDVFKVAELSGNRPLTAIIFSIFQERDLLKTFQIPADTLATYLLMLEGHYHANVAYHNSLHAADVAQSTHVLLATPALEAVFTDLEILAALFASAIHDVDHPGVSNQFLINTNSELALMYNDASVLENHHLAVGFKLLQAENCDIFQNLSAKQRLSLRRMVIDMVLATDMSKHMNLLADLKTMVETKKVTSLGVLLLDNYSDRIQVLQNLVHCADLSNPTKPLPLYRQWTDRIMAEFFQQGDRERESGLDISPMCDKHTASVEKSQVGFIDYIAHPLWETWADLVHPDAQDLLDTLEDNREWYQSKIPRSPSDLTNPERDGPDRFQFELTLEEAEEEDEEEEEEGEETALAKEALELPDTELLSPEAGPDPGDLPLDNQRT

[6] = target: Histone deacetylase 4 (Homo sapiens) (UniProt P56524); assay: Inhibition on human recombinant HDAC4 at 10 uM measured after 20 min by luminescence glo assay
Sequence of Histone deacetylase 4 (Homo sapiens) (P56524 whole entry): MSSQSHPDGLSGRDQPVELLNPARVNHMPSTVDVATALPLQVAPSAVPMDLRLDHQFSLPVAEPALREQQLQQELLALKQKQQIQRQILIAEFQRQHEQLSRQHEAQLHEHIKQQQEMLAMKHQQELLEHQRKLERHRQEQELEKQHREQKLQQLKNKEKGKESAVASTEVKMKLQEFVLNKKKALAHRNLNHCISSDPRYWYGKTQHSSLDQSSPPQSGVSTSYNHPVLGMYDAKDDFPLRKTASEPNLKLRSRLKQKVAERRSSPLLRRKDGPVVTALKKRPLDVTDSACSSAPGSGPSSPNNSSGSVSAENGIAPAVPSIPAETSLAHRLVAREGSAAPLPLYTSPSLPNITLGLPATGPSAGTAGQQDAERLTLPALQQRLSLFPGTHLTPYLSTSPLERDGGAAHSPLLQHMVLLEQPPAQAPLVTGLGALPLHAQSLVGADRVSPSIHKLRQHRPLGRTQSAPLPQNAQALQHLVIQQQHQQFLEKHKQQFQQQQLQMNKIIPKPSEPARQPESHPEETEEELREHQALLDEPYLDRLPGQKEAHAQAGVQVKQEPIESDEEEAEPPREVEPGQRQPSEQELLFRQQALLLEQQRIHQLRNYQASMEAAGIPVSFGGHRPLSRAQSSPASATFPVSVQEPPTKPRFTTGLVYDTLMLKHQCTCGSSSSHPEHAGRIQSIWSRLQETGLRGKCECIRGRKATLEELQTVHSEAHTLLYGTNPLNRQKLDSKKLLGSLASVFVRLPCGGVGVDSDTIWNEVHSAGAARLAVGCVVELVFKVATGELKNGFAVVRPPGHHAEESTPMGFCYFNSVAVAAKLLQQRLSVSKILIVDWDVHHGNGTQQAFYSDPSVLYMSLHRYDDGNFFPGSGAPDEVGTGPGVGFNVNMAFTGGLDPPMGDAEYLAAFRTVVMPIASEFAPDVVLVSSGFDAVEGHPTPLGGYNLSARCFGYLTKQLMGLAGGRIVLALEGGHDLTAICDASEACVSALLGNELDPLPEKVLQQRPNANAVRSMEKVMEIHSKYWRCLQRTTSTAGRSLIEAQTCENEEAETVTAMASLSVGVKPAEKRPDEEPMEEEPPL

[7] = target: Histone deacetylase 9 (Homo sapiens) (UniProt Q9UKV0); assay: Inhibition on human recombinant HDAC9 at 10 uM measured after 20 min by luminescence glo assay
Sequence of Histone deacetylase 9 (Homo sapiens) (Q9UKV0 whole entry): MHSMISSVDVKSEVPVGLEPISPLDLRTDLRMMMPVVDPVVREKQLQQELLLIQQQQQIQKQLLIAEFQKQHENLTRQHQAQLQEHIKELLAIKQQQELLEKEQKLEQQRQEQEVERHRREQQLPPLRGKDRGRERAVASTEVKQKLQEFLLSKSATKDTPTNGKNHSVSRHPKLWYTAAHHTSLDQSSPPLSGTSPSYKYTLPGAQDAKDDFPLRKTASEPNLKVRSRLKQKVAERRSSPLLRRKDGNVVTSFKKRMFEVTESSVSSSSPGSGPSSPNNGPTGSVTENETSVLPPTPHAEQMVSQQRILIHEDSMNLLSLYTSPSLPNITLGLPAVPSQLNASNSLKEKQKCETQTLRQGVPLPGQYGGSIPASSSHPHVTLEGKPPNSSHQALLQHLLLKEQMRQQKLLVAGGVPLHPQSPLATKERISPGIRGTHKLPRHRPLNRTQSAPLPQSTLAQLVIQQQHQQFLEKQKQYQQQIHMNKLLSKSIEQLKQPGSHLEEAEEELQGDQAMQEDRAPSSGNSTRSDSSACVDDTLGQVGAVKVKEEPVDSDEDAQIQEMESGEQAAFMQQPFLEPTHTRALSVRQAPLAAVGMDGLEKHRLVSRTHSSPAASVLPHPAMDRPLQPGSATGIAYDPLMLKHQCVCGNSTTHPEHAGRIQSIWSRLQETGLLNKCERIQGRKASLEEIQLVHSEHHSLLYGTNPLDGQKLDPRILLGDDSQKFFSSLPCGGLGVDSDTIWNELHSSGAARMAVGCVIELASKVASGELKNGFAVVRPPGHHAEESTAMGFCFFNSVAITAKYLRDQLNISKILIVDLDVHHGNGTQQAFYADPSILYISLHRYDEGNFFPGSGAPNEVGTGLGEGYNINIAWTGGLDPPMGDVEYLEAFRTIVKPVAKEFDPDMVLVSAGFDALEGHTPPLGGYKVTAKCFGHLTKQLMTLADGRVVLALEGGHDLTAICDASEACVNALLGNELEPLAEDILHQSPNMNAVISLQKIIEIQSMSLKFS

[8] = target: T3, Protein deacetylase HDAC6 (Homo sapiens) (UniProt Q9UBN7); assay: Inhibition on human recombinant HDAC6 at 10 uM measured after 20 min by luminescence glo assay
T3 sequence (whole entry): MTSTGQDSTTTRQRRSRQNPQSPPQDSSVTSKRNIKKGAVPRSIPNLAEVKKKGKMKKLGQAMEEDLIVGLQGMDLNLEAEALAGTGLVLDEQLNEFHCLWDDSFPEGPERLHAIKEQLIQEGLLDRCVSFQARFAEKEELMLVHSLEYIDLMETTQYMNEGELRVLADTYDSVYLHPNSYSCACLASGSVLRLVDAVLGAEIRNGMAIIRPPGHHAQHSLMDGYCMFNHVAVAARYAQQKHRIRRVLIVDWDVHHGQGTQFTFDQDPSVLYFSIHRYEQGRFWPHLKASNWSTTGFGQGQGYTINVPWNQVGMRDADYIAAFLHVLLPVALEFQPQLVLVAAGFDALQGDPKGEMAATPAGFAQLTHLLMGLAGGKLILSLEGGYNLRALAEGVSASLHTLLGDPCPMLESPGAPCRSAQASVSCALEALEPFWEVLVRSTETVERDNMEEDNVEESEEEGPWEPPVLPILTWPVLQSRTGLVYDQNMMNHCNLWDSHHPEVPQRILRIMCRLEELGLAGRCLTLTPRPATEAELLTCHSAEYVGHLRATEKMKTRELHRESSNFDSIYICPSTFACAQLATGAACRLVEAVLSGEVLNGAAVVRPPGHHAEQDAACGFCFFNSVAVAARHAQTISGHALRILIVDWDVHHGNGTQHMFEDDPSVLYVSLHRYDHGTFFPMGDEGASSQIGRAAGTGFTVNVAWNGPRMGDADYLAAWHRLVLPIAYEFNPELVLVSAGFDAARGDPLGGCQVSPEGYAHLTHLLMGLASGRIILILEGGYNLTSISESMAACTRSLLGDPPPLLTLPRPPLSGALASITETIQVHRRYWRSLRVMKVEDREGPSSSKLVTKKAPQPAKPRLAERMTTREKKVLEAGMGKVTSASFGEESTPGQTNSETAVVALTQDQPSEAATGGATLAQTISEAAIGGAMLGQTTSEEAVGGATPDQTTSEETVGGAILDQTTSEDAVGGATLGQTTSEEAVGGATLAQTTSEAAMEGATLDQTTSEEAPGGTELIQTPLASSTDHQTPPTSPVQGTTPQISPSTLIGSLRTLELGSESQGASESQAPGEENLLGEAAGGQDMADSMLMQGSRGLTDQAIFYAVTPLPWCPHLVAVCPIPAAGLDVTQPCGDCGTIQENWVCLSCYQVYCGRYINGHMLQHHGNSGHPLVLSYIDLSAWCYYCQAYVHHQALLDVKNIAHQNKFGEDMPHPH

Structure (SMILES)	Activity [1] [%]	inhibition [2] [%]	inhibition [3] [%]	inhibition at 0.5 h, 10 µM [4] [%]	inhibition [5] [%]	inhibition [6] [%]	inhibition [7] [%]	inhibition [8] [%]
O=C(CCNC(=O)c1cccn(Cc2ccc(F)c(F)c2)c1=O)Nc1ccc2c(c1)/C(=C/c1cnc[nH]1)C(=O)N2	< 25	< 30	< 30	> 90	< 30	< 30	< 30	< 30
Cc1c(Br)cc(C(=O)N[C@@H](C(=O)Nc2ccc3c(c2)/C(=C/c2cnc[nH]2)C(=O)N3)c2ccccc2)c(=O)n1Cc1ccc(F)c(F)c1	< 25	< 30	< 30	< 45	< 30	< 30	< 30	< 30
Cc1ccc(C(=O)NCC(=O)Nc2ccc3c(c2)/C(=C/c2cnc[nH]2)C(=O)N3)c(=O)n1Cc1ccc(F)c(F)c1	< 25	< 30	< 30	> 90	< 30	< 30	< 30	< 30
O=C1Nc2ccc(NC(=O)[C@H](NC(=O)c3cccn(Cc4ccc(F)c(F)c4)c3=O)c3ccccc3)cc2/C1=C/c1cnc[nH]1 (stereo in doubt)	< 25	< 30	< 30	–	< 30	< 30	< 30	< 30
